Assays:
Type in all cases: cell-based
[1] = target: T1, 17β-hydroxysteroid dehydrogenase type 2 (17β-HSD type 2) (Homo sapiens, UniProt P37059); test: Inhibition of 17β-HSD type 2 in MCF-7 cells stably expressing the isoenzyme (tritium labeled estradiol conversion, HPLC); details: MCF7, MCF-7 cells expressing 17β-HSD type 2, 2 nM tritium labeled estradiol; for inhibition at 1 µM: 1 μM test compound, read-out: % Inhibition HSD2 1 μM; for inhibition at 10 µM: 10 μM test compound, read-out: % Inhibition HSD2 10 μM
T1 construct: expressed in transfected cells; host or cells: MCF-7
T1 sequence (P37059 1-387): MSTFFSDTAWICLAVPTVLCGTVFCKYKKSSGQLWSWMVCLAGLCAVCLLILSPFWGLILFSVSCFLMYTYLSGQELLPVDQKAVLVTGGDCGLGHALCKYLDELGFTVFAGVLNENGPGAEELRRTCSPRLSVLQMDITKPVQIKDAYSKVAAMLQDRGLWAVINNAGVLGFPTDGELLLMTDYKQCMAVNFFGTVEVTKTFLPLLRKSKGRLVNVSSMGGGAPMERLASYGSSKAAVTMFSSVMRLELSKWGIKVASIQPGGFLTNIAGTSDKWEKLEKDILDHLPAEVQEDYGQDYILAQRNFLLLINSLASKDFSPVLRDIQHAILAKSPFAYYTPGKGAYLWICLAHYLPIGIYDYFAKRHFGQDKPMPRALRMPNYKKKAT
In short: (§1)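 Compounds are tested at two concentrations on MCF-7 cells carrying a single 17β-HSD isoenzyme, with 2 nM tritiated estrone, estradiol or androstenedione as type 1, 2 or 3 substrate. Percent inhibition reflects lower conversion relative to a compound-free control.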

[2] = target: T2, 17β-hydroxysteroid dehydrogenase type 1 (17β-HSD type 1) (Homo sapiens, UniProt P14061); test: Inhibition of 17β-HSD type 1 in MCF-7 cells stably expressing the isoenzyme (tritium labeled estrone conversion, HPLC); details: MCF7, MCF-7 cells expressing 17β-HSD type 1, 2 nM tritium labeled estrone; for inhibition at 1 µM: 1 μM test compound, read-out: % Inhibition HSD1 1 μM; for inhibition at 10 µM: 10 μM test compound, read-out: % Inhibition HSD1 10 μM
T2 construct: expressed in transfected cells; host or cells: MCF-7
T2 sequence (P14061 1-328): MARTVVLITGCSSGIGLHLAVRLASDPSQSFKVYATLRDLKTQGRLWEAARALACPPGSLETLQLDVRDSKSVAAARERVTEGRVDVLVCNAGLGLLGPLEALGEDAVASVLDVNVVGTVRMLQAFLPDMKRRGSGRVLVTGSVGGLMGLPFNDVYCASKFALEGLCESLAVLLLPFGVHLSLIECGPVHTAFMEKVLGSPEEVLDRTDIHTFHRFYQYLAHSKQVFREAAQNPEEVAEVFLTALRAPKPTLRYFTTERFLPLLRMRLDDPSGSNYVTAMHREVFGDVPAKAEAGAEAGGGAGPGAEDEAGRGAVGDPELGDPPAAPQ
In short: as §1

[3] = target: T3, 17β-hydroxysteroid dehydrogenase type 3 (17β-HSD type 3) (Homo sapiens, UniProt P37058); test: Inhibition of 17β-HSD type 3 in MCF-7 cells stably expressing the isoenzyme (tritium labeled androstenedione conversion, HPLC); details: MCF7, MCF-7 cells expressing 17β-HSD type 3, 2 nM tritium labeled androstenedione; for inhibition at 1 µM: 1 μM test compound, read-out: % Inhibition HSD3 1 μM; for inhibition at 10 µM: 10 μM test compound, read-out: % Inhibition HSD3 10 μM
T3 construct: expressed in transfected cells; host or cells: MCF-7
T3 sequence (P37058 1-310): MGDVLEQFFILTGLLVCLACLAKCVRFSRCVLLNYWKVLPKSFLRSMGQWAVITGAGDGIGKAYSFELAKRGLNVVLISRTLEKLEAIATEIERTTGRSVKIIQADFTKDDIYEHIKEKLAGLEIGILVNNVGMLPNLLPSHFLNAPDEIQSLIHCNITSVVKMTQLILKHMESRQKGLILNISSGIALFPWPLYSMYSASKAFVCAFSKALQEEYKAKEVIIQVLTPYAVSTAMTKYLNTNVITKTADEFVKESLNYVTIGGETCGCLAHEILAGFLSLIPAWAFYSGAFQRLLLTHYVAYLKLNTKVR
In short: as §1

Structure (SMILES)	inhibition at 1 µM [1] [%]	inhibition at 10 µM [1] [%]	inhibition at 1 µM [2] [%]	inhibition at 10 µM [2] [%]	inhibition at 1 µM [3] [%]	inhibition at 10 µM [3] [%]
CCCc1nc2sc3c(OC(C)=O)cccc3c2c(=O)n1Cc1cc(Br)ccc1OC [No. 99]	46.1	85.4	21.8	64.5	15.9	68.9
CCCc1nc2sc3c(O)cccc3c2c(=O)n1Cc1cc(Br)ccc1O [No. 100, 3-(5-Bromo-2-hydroxybenzyl)-8-hydroxy-2-propyl-3H-benzo[4,5]thieno[2,3-d]pyrimidin-4-one]	28.8	81.3	23.5	66.7	-0.8	7.7
CCCc1nc2sc3c(c2c(=O)n1Cc1ccco1)CCCC3 [No. 101, 3-(Furan-2-ylmethyl)-2-propyl-5,6,7,8-tetrahydro-3H-benzo[4,5]thieno[2,3-d]pyrimidin-4-one]	18	30	14.1	26	5.7	7.8
CCCc1nc2sc3c(c2c(=O)n1Cc1ccc(Br)o1)CCC(Br)C3=O (stereo not drawn) [No. 103, 7-Bromo-3-(5-bromofuran-2-ylmethyl)-2-propyl-6,7-dihydro-3H,5H-benzo[4,5]thieno[2,3-d]pyrimidine-4,8-dione]	30.7	49.7	16.2	70.6	-7.7	51.8
CCCc1nc2sc3c(O)cccc3c2c(=O)n1Cc1ccc(Br)o1 [No. 105, 3-(5-Bromofuran-2-ylmethyl)-8-hydroxy-2-propyl-3H-benzo[4,5]thieno[2,3-d]pyrimidin-4-one]	50.7	85.9	29.8	61.2	17.7	67.3
CCCc1nc2sc3c(O)c(Br)ccc3c2c(=O)n1Cc1ccc(Br)o1 [No. 107, 7-Bromo-3-(5-bromofuran-2-ylmethyl)-8-hydroxy-2-propyl-3H-benzo[4,5]thieno[2,3-d]pyrimidin-4-one]	25.4	45.7	-14.2	24.7	3.2	44.3
COCCn1c(-c2cc(OC)c(OC)c(OC)c2)nc2sc3c(c2c1=O)CCCC3 [No. 108, 3-(2-Methoxyethyl)-2-(3,4,5-trimethoxyphenyl)-5,6,7,8-tetrahydro-3H-benzo[4,5]thieno[2,3-d]pyrimidin-4-one]	9.6	7.4	5.2	11	0.8	9.8
COc1cc(-c2nc3sc4c(c3c(=O)n2CC(C)C)CCCC4)cc(OC)c1OC [No. 113, 3-Isobutyl-2-(3,4,5-trimethoxyphenyl)-5,6,7,8-tetrahydro-3H-benzo[4,5]thieno[2,3-d]pyrimidin-4-one]	8.2	7.7	22.2	57.6	2.7	48.9
COc1cc(-c2nc3sc4c(c3c(=O)n2CC(C)C)CCCC4=O)cc(OC)c1OC [No. 114, 3-Isobutyl-2-(3,4,5-trimethoxyphenyl)-6,7-dihydro-3H,5H-benzo[4,5]thieno[2,3-d]pyrimidine-4,8-dione]	15.5	25.3	15.5	55.9	2.4	32

The next lines start with the values.

inhibition at 1 µM [1] [%]	inhibition at 10 µM [1] [%]	inhibition at 1 µM [2] [%]	inhibition at 10 µM [2] [%]	inhibition at 1 µM [3] [%]	inhibition at 10 µM [3] [%]	Structure (SMILES)
46.6	82.8	28.2	69.1	16.6	63.3	CCCc1nc2sc3c(O)cccc3c2c(=O)n1Cc1cc(Br)ccc1OC [No. 98]
13.6	18.6	14.8	57.5	6.7	51.2	CCCc1nc2sc3c(c2c(=O)n1Cc1ccco1)CCCC3=O [No. 102, 3-(Furan-2-ylmethyl)-2-propyl-6,7-dihydro-3H,5H-benzo[4,5]thieno[2,3-d]pyrimidine-4,8-dione]
26.6	47.9	20.2	42.6	-5	51.4	CCCc1nc2sc3c(c2c(=O)n1Cc1ccc(Br)o1)CCC(Br)(Br)C3=O [No. 104, 7,7-Dibromo-3-(5-bromofuran-2-ylmethyl)-2-propyl-6,7-dihydro-3H,5H-benzo[4,5]thieno[2,3-d]pyrimidine-4,8-dione]
50	86.2	28.8	72.5	8.1	71.1	CCCc1nc2sc3c(OC(C)=O)cccc3c2c(=O)n1Cc1ccc(Br)o1 [No. 106, Acetic acid 3-(5-bromofuran-2-ylmethyl)-4-oxo-2-propyl-3,4-dihydro-benzo[4,5]thieno[2,3-d]pyrimidin-8-yl ester]
6	9.7	-0.2	20.7	0.6	11.6	COCCn1c(-c2cc(OC)c(OC)c(OC)c2)nc2sc3c(c2c1=O)CCCC3=O [No. 109, 3-(2-Methoxyethyl)-2-(3,4,5-trimethoxyphenyl)-6,7-dihydro-3H,5H-benzo[4,5]thieno[2,3-d]pyrimidine-4,8-dione]
24.7	48.7	23.8	56.9	7.3	41.5	COCCn1c(-c2cc(OC)c(OC)c(OC)c2Br)nc2sc3c(c2c1=O)CCC(Br)C3=O (stereo not drawn) [No. 111, 7-Bromo-2-(2-bromo-3,4,5-trimethoxyphenyl)-3-(2-methoxyethyl)-6,7-dihydro-3H,5H-benzo[4,5]thieno[2,3-d]pyrimidine-4,8-dione]
14.6	46.3	28.3	54.4	7	49.4	COCCn1c(-c2cc(OC)c(OC)c(OC)c2Br)nc2sc3c(O)cccc3c2c1=O [No. 112, 2-(2-Bromo-3,4,5-trimethoxyphenyl)-8-hydroxy-3-(2-methoxyethyl)-3H-benzo[4,5]thieno[2,3-d]pyrimidin-4-one]
18.7	19.5	22.9	70.3	7.6	20.7	COc1cc(-c2nc3sc4c(c3c(=O)n2CC(C)C)CCC(Br)C4=O)cc(OC)c1OC (stereo not drawn) [No. 115, 7-Bromo-3-isobutyl-2-(3,4,5-trimethoxyphenyl)-6,7-dihydro-3H,5H-benzo[4,5]thieno[2,3-d]pyrimidine-4,8-dione]
28	26.1	12.5	41.4	8.1	21.2	COc1cc(-c2nc3sc4c(c3c(=O)n2CC(C)C)CCC(Br)C4=O)c(Br)c(OC)c1OC (stereo not drawn) [No. 116, 7-Bromo-2-(2-bromo-3,4,5-trimethoxypheny1)-3-isobutyl-6,7-dihydro-3H,5H-benzo[4,5]thieno[2,3-d]pyrimidine-4,8-dione]
